The text below walks through data of patent US8513242B2, “Pyrimidine compounds and methods of making and using same” (Cystic Fibrosis Foundation Therapeutics, Inc., priority 2008, dated 2013).

The target of test [1] is T1, ΔF508 CFTR (Homo sapiens, UniProt P13569, DEL508-508).
T1 construct: expressed in transfected cells; host or cells: FRT epithelial cells (Fischer rat thyroid)
Briefly: Dual corrector potentiator assay, potentiator mode: FRT cell Ussing chamber short circuit current, compound added to mucosal solution. Format: cell-based. To be noted: for Potentiator Efficacy: ΔI(forskolin+compound)/ΔI(forskolin+IBMX+genistein). As for the experimental part: (§1) FRT epithelial cell monolayers were grown on Snapwell filter inserts and optionally treated with a reference corrector N-(2-(5-chloro-2-methoxyphenylamino)-4′-methyl-4,5′-bithiazol-2′-yl)benzamide. The cells were exposed to a compound of the invention for 24 hours prior to the assay. The inserts were transferred to a Navicyte Ussing recording chamber and superfused with a HEPES buffered physiological saline (HB-PS) with composition (in mM): NaCl, 137; KCl, 4.0; CaCl2, 1.8; MgCl2, 1; HEPES, 10; Glucose, 10; pH adjusted to 7.4 with NaOH. The mucosal solution was 10CF-PS (composition in mM: Na-gluconate, 137; KCl, 4; CaCl2, 1.8; MgCl2, 1; HEPES, 10; Mannitol, 10; pH adjusted to 7.4 with N-methyl-D-glucamine) to create a transepithelial Cl ion gradient. A Physiologic Instruments VCC MC6 epithelial voltage clamp (Physiologic Instruments, Inc., San Diego, Calif.) was used to record the short circuit current (ISC).
(§2) Inserts were voltage clamped at 0 mV to measure the ISC. 10CF-PS solution (5 ml) was added to the mucosal (top) side of the Snapwell filter and HB-PS solution (5 mL) was added to the serosal (bottom) side of the Snapwell filter insert to permeabilize the serosal membrane. Solution additions and replacements in the Navicyte chambers were performed in a way to maintain a hydrostatic pressure gradient from mucosal to serosal sides of the filters by maintaining a solution level greater or equal in the mucosal chamber relative to the serosal chamber during solution changes. After acquisition of at least 10 minutes of baseline current, agonists (final concentrations: 10 μM forskolin, 100 μM 3-isobutyl-1-methylxanthine [IBMX] and 20 μM genistein) and antagonist (final concentration: 10 μM CFTRinh-172) were applied sequentially and cumulatively at 10 minute intervals for forskolin and IBMX, and at 15 minute intervals for genistein and CFTRinh-172, to both serosal and mucosal epithelial surfaces.
(§3) Agonists were prepared as 200×-1000× concentrated solutions in HP-PS and 10CF-PS. Agonist stocks prepared in HB-PS were added to the serosal surface, while agonist stocks prepared in 10CF-PS were added to the mucosal surface. In potentiator assays, appropriate volumes from 10 mM test compound solution in DMSO were added to the mucosal 10CF-PS solution. Agonists were diluted to the final working concentration in the Navicyte chamber by removal of chamber solution and addition of the concentrated stock solution. Order of solution removal was serosal then mucosal and for solution additions mucosal then serosal in order to maintain a hydrostatic pressure gradient from mucosal to serosal during solution changes. Transepithelial resistance was monitored every 20 s with 10 mV voltage steps.
(§4) EC50 values are defined as the concentration of compound that gives a >25% increase in whole cell Cl^− conductance (compared to DMSO at 37° C. as a vehicle) at 10 μM. The corrector efficacy was measured as a percentage change in agonist+compound vs. agonist: ΔIcompound(forskolin+IBMX+genistein)/ΔIvehicle(forskolin+IBMX+genistein). The potentiator efficacy was measured as a percentage change in forskolin activity: ΔI(forskolin+compound)/ΔI(forskolin+IBMX+genistein).

In test [2] the target is T1, ΔF508 CFTR. Description: Dual corrector potentiator assay, corrector mode: FRT cell Ussing chamber short circuit current after 24 hours exposure to compound. In kind it is cell-based. The note with it: for EC50: FRT cell monolayers, 24 hours exposure, EC50 defined as concentration giving >25% increase in whole cell Cl− conductance vs DMSO at 37° C.; for Corrector Efficacy: ΔIcompound(forskolin+IBMX+genistein)/ΔIvehicle(forskolin+IBMX+genistein). On the procedure: as §1, §2, §3, §4

Where [3] appears, read: ** cells treated with reference corrector N-(2-(5-chloro-2-methoxyphenylamino)-4′-methyl-4,5′-bithiazol-2′-yl)benzamide.
Where [4] appears, read: pretreatment of cells not given.

T1 sequence (P13569 with tags, fused parts or gaps DEL508-508): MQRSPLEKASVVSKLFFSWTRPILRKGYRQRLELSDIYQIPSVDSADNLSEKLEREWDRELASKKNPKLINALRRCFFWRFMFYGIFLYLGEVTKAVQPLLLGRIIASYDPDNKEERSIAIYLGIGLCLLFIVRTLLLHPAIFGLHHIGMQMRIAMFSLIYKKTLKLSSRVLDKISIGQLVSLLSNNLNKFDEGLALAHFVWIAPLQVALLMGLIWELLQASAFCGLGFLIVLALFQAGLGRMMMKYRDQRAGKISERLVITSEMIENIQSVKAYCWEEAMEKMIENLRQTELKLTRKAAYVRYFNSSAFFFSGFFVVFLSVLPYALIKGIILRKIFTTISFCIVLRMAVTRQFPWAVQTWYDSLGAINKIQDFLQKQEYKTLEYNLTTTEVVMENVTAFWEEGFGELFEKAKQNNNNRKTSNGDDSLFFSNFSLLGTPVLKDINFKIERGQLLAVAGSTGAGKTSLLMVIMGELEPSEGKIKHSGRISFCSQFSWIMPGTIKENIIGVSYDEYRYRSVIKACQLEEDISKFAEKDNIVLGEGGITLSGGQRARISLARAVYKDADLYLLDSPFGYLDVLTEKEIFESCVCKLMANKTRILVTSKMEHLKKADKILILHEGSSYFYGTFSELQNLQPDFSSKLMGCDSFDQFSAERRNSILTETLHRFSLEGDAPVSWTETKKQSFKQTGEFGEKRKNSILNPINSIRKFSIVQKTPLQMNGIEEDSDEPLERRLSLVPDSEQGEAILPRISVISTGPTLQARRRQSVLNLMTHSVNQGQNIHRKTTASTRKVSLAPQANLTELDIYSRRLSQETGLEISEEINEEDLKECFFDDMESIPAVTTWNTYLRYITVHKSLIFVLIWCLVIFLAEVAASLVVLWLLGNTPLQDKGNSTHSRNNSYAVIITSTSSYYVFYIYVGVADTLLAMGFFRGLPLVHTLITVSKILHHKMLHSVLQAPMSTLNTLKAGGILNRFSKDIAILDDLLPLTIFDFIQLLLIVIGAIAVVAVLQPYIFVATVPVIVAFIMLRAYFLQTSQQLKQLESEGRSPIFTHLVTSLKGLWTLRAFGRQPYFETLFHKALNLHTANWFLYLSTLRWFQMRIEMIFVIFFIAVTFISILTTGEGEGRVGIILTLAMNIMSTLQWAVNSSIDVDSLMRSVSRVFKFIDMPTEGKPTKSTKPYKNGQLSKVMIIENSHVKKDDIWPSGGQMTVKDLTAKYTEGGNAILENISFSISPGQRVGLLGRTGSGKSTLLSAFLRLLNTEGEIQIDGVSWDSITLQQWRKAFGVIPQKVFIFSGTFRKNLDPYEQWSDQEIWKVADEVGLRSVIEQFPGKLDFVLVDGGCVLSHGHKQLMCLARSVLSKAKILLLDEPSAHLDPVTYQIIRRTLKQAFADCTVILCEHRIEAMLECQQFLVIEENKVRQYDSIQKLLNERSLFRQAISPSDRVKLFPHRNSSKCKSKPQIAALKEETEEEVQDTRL

Usually EC50 stands for the concentration at which the effect is half-maximal. As for `C[C@H]1CC[C@@H](Nc2ncc(-c3ccc(OC(F)(F)F)cc3)cn2)CC1` [Example 4, N-((1S,4S)-4-Methylcyclohexyl)-5-(4-(trifluoromethoxy)phenyl)pyrimidin-2-amine], the concentration giving a half-maximal response (EC50) in test [1] (* vehicle treated cells) is under 3 µM; in test [1] (setting [3]) it was under 3 µM; in test [2], under 10 µM. In addition, the “Potentiator Efficacy” value was “+++* (+++=>0.6)” in test [1] (* vehicle treated cells) and “+++** (+++=>0.6)” in test [1] (setting [3]). The “Corrector Efficacy” value in test [2] was “+++ (+++=>3)”.
On to `COc1nc(N[C@H]2CC[C@@H](C)CC2)ncc1-c1ccc(OC(C)C)cc1` [Example 7, 5-(4-Isopropoxyphenyl)-4-methoxy-N-((1S,4S)-4-methylcyclohexyl)pyrimidin-2-amine], for which, in test [1] (setting [3]), the EC50 is under 10 µM and the “Potentiator Efficacy” value was “++** (++=0.3-0.6)”. Also, in test [2], the EC50 is under 10 µM and the “Corrector Efficacy” value was “+++ (+++=>3)”.
For the molecule `C[C@H]1CC[C@@H](Nc2ncc(-c3ccc(OC(F)F)cc3)cn2)CC1` [Example 19, 5-(4-(difluoromethoxy)phenyl)-N-((1s,4s)-4-methylcyclohexyl)pyrimidin-2-amine], in test [1] (setting [3]), the EC50 is under 3 µM and the “Potentiator Efficacy” value is given as “+++** (+++=>0.6)”. In addition, in test [2], the 50% effective concentration (EC50) is under 10 µM and the “Corrector Efficacy” value was “+++ (+++=>3)”.
The corresponding values for `CC(C)Oc1ccc(-c2cnc(N[C@H]3CC[C@@H](C)CC3)nc2)cc1` [Example 23, 5-(4-isopropoxyphenyl)-N-((1s,4s)-4-methylcyclohexyl)pyrimidin-2-amine] are under 3 µM, “+++** (+++=>0.6)”, under 10 µM and “+++ (+++=>3)”.
The corresponding values for `COc1ccc(-c2cnc(N[C@H]3CC[C@@H](C)CC3)nc2)cc1` [Example 27, 5-(4-methoxyphenyl)-N-((1s,4s)-4-methylcyclohexyl)pyrimidin-2-amine] are under 3 µM, “++** (++=0.3-0.6)”, under 10 µM and “+++ (+++=>3)”.
Consider `COc1nc(N[C@H]2CC[C@@H](C)CC2)ncc1-c1ccc(OC(F)(F)F)cc1` [Example 58, 4-methoxy-N-((1s,4s)-4-methylcyclohexyl)-5-(4-(trifluoromethoxy)phenyl)pyrimidin-2-amine], for which, in test [1] (setting [3]), the half-maximal effective concentration (EC50) is under 3 µM and the “Potentiator Efficacy” value is given as “+++** (+++=>0.6)”. In addition, in test [2], the EC50 is under 10 µM and the “Corrector Efficacy” value is listed as “+++ (+++=>3)”.
In the same order, the values of `COc1nc(N[C@H]2CC[C@@H](C)CC2)ncc1-c1ccc(OC(F)F)cc1` [Example 59, 5-(4-(difluoromethoxy)phenyl)-4-methoxy-N-((1s,4s)-4-methylcyclohexyl)pyrimidin-2-amine] are under 3 µM, “++** (++=0.3-0.6)”, under 10 µM and “+++ (+++=>3)”.
Consider `COc1nc(N[C@H]2CC[C@@H](C)CC2)ncc1-c1ccc(OC(C)C)cc1` [Example 102, 5-(4-isopropoxyphenyl)-4-methoxy-N-((1s,4s)-4-methylcyclohexyl)pyrimidin-2-amine], for which, in test [1] (setting [4]), the EC50 is under 3 µM and the “Potentiator Efficacy” value is “++ (++=0.3-0.6)”.
In the same order, the values of `COc1nc(N[C@H]2CC[C@@H](C)CC2)ncc1-c1ccc(OC(F)(F)F)cc1` [Example 103, 4-methoxy-N-((1s,4s)-4-methylcyclohexyl)-5-(4-(trifluoromethoxy)phenyl)pyrimidin-2-amine] are under 3 µM and “++ (++=0.3-0.6)”.
With `COc1nc(N[C@H]2CC[C@@H](C)CC2)ncc1-c1ccc(OC(F)F)cc1` [Example 104, 5-(4-(difluoromethoxy)phenyl)-4-methoxy-N-((1s,4s)-4-methylcyclohexyl)pyrimidin-2-amine], in test [1] (setting [4]), the EC50 was under 3 µM and the “Potentiator Efficacy” value is “++ (++=0.3-0.6)”.
`COc1nc(N[C@H]2CC[C@@H](C)CC2)ncc1-c1ccc(OC(C)C)nc1` [Example 118, 5-(6-isopropoxypyridin-3-yl)-4-methoxy-N-((1s,4s)-4-methylcyclohexyl)pyrimidin-2-amine]: in test [2], the half-maximal effective concentration (EC50) was under 10 µM and the “Corrector Efficacy” value is given as “+++ (+++=>3)”.
The corresponding values for `COc1nc(N[C@H]2CC[C@@H](C)CC2)ncc1-c1ccc(N2CCCCC2)nc1` [Example 119, 4-methoxy-N-((1s,4s)-4-methylcyclohexyl)-5-(6-(piperidin-1-yl)pyridin-3-yl)pyrimidin-2-amine] are under 10 µM and “+++ (+++=>3)”.
The corresponding values for `COc1nc(N[C@H]2CC[C@@H](C)CC2)ncc1-c1ccc(OCC#N)cc1` [Example 125, 2-(4-(4-methoxy-2-((1s,4s)-4-methylcyclohexylamino)pyrimidin-5-yl)phenoxy)acetonitrile] are over 20 µM and “+++ (+++=>3)”.
The corresponding values for `C[C@H]1CC[C@@H](Nc2ncc(-c3ccc(OCC#N)cc3)c(OCC3CC3)n2)CC1` [Example 133, 2-(4-(4-(cyclopropylmethoxy)-2-((1s,4s)-4-methylcyclohexylamino)pyrimidin-5-yl)phenoxy)acetonitrile] are over 20 µM and “+++ (+++=>3)”.
With `COc1nc(N[C@H]2CC[C@@H](C)CC2)ncc1-c1ccnc(C#N)c1` [Example 143, 4-(4-methoxy-2-((1s,4s)-4-methylcyclohexylamino)pyrimidin-5-yl)picolinonitrile], in test [1] (setting [4]), the half-maximal effective concentration (EC50) was under 3 µM and the “Potentiator Efficacy” value was “++ (++=0.3-0.6)”.
Consider `C[C@H]1CC[C@@H](Nc2ncc(-c3ccc(OCC#N)cc3)c(OC3CCOC3)n2)CC1` (some centres unmarked) [Example 150, 2-(4-(2-((1s,4s)-4-methylcyclohexylamino)-4-(tetrahydrofuran-3-yloxy)pyrimidin-5-yl)phenoxy)acetonitrile], for which, in test [2], the EC50 was over 10 µM and the “Corrector Efficacy” value was “+++ (+++=>3)”.
In the same order, the values of `C[C@H]1CC[C@@H](Nc2ncc(-c3ccc4c(c3)OCCO4)c(O[C@@H]3CCOC3)n2)CC1` [Example 201, 5-(2,3-dihydrobenzo[b][1,4]dioxin-6-yl)-N-((1s,4S)-4-methylcyclohexyl)-4-((R)-tetrahydrofuran-3-yloxy)pyrimidin-2-amine] are about 10 µM and “+++ (+++=>3)”.
